# Source: PMC6602958, “Pharmacokinetics of anti-infectious reagents in silkworms” (Scientific Reports, 2019)
# Read-outs that look alike come from different tables or passages of the source. *1 amine or outer side, *2 acyl side, *3 side chain or, on linkers, in order; H or OH if unused. Where a SMILES comes first, the peptide text is derived from it. Bridges are numbered along the chain shown (N, C = ends). [ ]: non-standard residue; d: D form. The star is where a group is joined. hTyr(3S-OH,4S-OH,3'-OSO3H) = N[C@H](C(=O)O)[C@H](O)[C@@H](O)c1ccc(O)c(OS(=O)(=O)O)c1; Orn(4R-OH,5R-OH) = O=C([C@H](C[C@@H](O)[C@@H](O)N[*:3])N[*:1])[*:2]; Pro(3S-OH,4S-Me) = C[C@H]1CN[C@H](C(=O)O)[C@H]1O; X1 = CCCCCOc1ccc(-c2cc(-c3ccc(C(=O)*)cc3)no2)cc1; Gln(3R-OH) = NC(=O)C[C@@H](O)[C@H](N)C(=O)O; Hyp = O=C(O)[C@@H]1C[C@@H](O)CN1
# How the values were obtained:
# cytochrome P450 [1] = test: 7-ethoxycoumarin deethylation activity in silkworm tissue culture (fluorometry); format: in vitro ADME, Bombyx mori (silkworm)
# Protocol: Figure 2 Tissue specificity of 7-ethoxycoumarin deethylation activity in silkworm. (A) The midgut, fat body, silk gland, and Malpighian tubule were extirpated from silkworms and incubated in medium containing 7-ethoxycoumarin at 30 °C. Medium was collected, extracted by acetone, and evaporated. Samples […] in 50 mM NaOAc buffer (pH 6.0) were treated with beta-glucosidase. The amount of 7-hydroxycomarin, a metabolite, was determined by fluorometry. (B) Inhibition of 7-ethoxycoumarin deethylation by cimetidine in the silkworm midgut. Silkworm midgut was incubated in medium containing 7-ethoxycoumarin and cimetidine at 30 °C. Samples were collected, extracted by acetone, and treated with beta-glucosidase. The amount of 7-hydroxycomarin was determined by fluorometry.
# Samples for HPLC were dissolved in 50% methanol.
# [2] = dog, cited from earlier work
# Candida albicans [3] = test: Antifungal activity (MIC) by micro dilution with or without silkworm hemolymph; format: cell-based
# Protocol: Antimicrobial and antifungal activities of each compound were measured by a micro dilution method[19],[20]. To measure protein binding to antifungal activity, silkworm hemolymph was collected by cutting the pseudopodium using scissors, and centrifuged at 3000 rpm for 5 min at 4 °C.
# [4] = Protein-binding capacity in silkworm hemolymph (filter unit, HPLC); conditions: silkworm hemolymph
# Candida albicans [5] = test: Silkworm infection model with Candida albicans (ED50); format: in vivo, Bombyx mori (silkworm)
# [6] = Pharmacokinetics of antibiotics in silkworm hemolymph after injection (HPLC)
# Protocol: Antibiotics were injected into silkworm hemolymph and hemolymph was collected by cutting the legs at the indicated time.
# Antibiotics dissolved in saline were injected into the hemolymph of 5th instar silkworms using a 1-mL syringe attached to a 27 G needle. Hemolymph was harvested from abdominal appendages by cutting them with scissors at the indicated time-points after administration, and mixed with an equal volume of acetone. Samples were centrifuged at 15,000 rpm for 5 min at 4 °C, and the supernatants were evaporated with a centrifuge evaporator[18]. The dried materials were dissolved in 50% methanol and filtrated through a 0.45-µm filter. […] The amount of antibiotics in the sample was quantified from the peak area of the chromatogram.
# cytochrome P450 [7] = test: Metabolism of luciferin derivatives in cultured silkworm midgut (P450-Glo, luminometer); format: in vitro ADME, Bombyx mori (silkworm); conditions: silkworm midgut incubated with luciferin substrate at 30 °C
# Protocol: Silkworms (5th instar, 5 days) were dissected in a buffer (10 mM HEPES/NaOH, 0.9% NaCl, pH 7.9), and isolated organs were incubated with 3 mL TC-100 medium containing 10% fetal bovine serum, 50 µg/ml gentamicin, and substrates for the metabolic reaction. Whole samples (medium and organ) were homogenized and extracted by equal volumes of acetone followed by evaporation. Extracted samples were dissolved in 50 mM NaOAc buffer and treated with beta-glucosidase to measure the fluorescence of metabolized 7-ethoxycoumarin[6].
# cytochrome P450 [8] = test: Metabolism of luciferin-ME by microsomal fractions from the silkworm midgut; format: biochemical, Bombyx mori (silkworm); conditions: Lineweaver-Burk plot
# Protocol: Silkworms were immersed in buffer (10 mM HEPES/NaOH, 0.9% NaCl, pH7.9), and organs were isolated and homogenized in a buffer (100 mM sodium phosphate, 1 mM EDTA, 2 mM benzamidine, 10% glycerol) by a glass-Teflon homogenizer. The tissue homogenates were centrifuged at 9000 × g for 10 min at 4 °C. The supernatant was further centrifuged at 49,000 rpm for 30 min at 4 °C. The precipitate was suspended in buffer (100 mM sodium phosphate, 1 mM EDTA, 2 mM benzamidine, 10% glycerol) and frozen at −80 °C after flash-freezing with liquid nitrogen until use.
# Microsomes and substrates were suspended in final 0.25 ml buffer comprising 0.1 M sodium phosphate buffer (pH 7.5) and 0.1 mM EDTA, and pre-incubated for 5 min at 30 °C. A cytochrome P450 reaction was initiated by adding a NADPH-generating system containing 3.3 mM glucose-6-phosphate, 1.25 mM NADP, 3.3 mM MgCl2, and 0.25 U glucose-6-phosphate dehydrogenase as a final concentration.
# Microsome fractions were prepared from the silkworm midgut, and incubated with luciferin-ME for 5 min at 30°C. The reactions were initiated by the addition of an NADPH-regeneration system. Production of luciferin was determined using a luminometer. (a) Titration of luciferin-ME. (b) Lineweaver Burk plot made from the titration curve.
# [9] = set-up: method as in PMID 15256761; conditions: rat, dose 1 mg/kg; cited from earlier work
# [10] = set-up: method as in PMID 3210270; conditions: sheep, dose 10 mg/kg; cited from earlier work
# [11] = mammal, dose 8 mg/kg; cited from earlier work
# [12] = 1 min after injection, raw data of Fig. 1
# [13] = 5 min after injection, raw data of Fig. 1
# [14] = 45 min after injection, raw data of Fig. 1
# [15] = 60 min after injection, raw data of Fig. 1
# [16] = 75 min after injection, raw data of Fig. 1
# [17] = 90 min after injection, raw data of Fig. 1
# [18] = 120 min after injection, raw data of Fig. 1
# [19] = 150 min after injection, raw data of Fig. 1
# [20] = 180 min after injection, raw data of Fig. 1
# [21] = 240 min after injection, raw data of Fig. 1
# [22] = 360 min after injection, raw data of Fig. 1
# [23] = after administration into hemolymph, alpha and beta phase, two-compartment model
# [24] = silkworm, injection into hemolymph, two-compartment model, dose per compound 10-50 mg/kg
# [25] = 10 min after injection, raw data of Fig. 1
# [26] = 30 min after injection, raw data of Fig. 1
structure (smiles),measurement,setting,value
CCOc1ccc2ccc(=O)oc2c1 [7-ethoxycoumarin],Tissue with the highest capacity to metabolize the compound (in words),"cytochrome P450 [1]; midgut, fat body, silk gland, Malpighian tubule in organ culture","the midgut, not the fat body, had the highest capacity to metabolize"
OC(Cn1cncn1)(Cn1cncn1)c1ccc(F)cc1F [Fluconazole],Vdss,[2]; dose 10 mg/kg,0.7 mL/g
same,t1/2,[2]; dose 10 mg/kg,13.0 h
same,Cltot,"[2]; in vivo, 10 mg/kg",0.04 mL/g/h
same,MIC,"Candida albicans [3]; read-out: MIC with 10% hemolymph (B), with 10% silkworm hemolymph",3.2 µg/mL
same,MIC,"Candida albicans [3]; without silkworm hemolymph, read-out: MIC without hemolymph (A)",0.4 µg/mL
same,"fraction unbound at 10 min, 10 µM",[4],0.35
same,Therapeutic effect in the silkworm infection model (in words),Candida albicans [5]; silkworm infection model,potent therapeutic effects at a low dose
same,ED50,Candida albicans [5]; silkworm infection model with Candida albicans,0.7 mg/kg
same,half-life,[6]; hemolymph,720 min
same,Cltot (total body clearance),[6]; in vivo,0.02 mL/g/h
same,Time-course of the decrease in concentration in hemolymph (in words),[6]; in vivo,biphasic
same,HPLC peak area in hemolymph,"[6]; silkworm (Bombyx mori), in vivo, 0.1 min",4424583
same,HPLC peak area in hemolymph,"[6]; silkworm (Bombyx mori), in vivo, 1 min",3714240
same,HPLC peak area in hemolymph,"[6]; silkworm (Bombyx mori), in vivo, 5 min",1821531
same,HPLC peak area in hemolymph,"[6]; silkworm (Bombyx mori), in vivo, 10 min",2367593
same,HPLC peak area in hemolymph,"[6]; silkworm (Bombyx mori), in vivo, 20 min",2257323
same,HPLC peak area in hemolymph,"[6]; silkworm (Bombyx mori), in vivo, 30 min",2040721
same,HPLC peak area in hemolymph,"[6]; silkworm (Bombyx mori), in vivo, 60 min",1663340
same,HPLC peak area in hemolymph,"[6]; silkworm (Bombyx mori), in vivo, 105 min",1575678
same,HPLC peak area in hemolymph,"[6]; silkworm (Bombyx mori), in vivo, 120 min",1440231
same,HPLC peak area in hemolymph,"[6]; silkworm (Bombyx mori), in vivo, 180 min",1474050
same,HPLC peak area in hemolymph,"[6]; silkworm (Bombyx mori), in vivo, 240 min",1455753
same,HPLC peak area in hemolymph,"[6]; silkworm (Bombyx mori), in vivo, 360 min",1088734
CC(C)OC(OC(C)C)C1CSC(c2nc3ccc(O)cc3s2)=N1 (stereo not drawn) [Luciferin-IPA],Production of luciferin (RFU/organ),cytochrome P450 [7],"198,000 RFU/organ"
COc1ccc2nc(C3=NC(C(=O)O)CS3)sc2c1 (stereo not drawn) [Luciferin-ME],Production of luciferin (RFU/organ),cytochrome P450 [7],"58,500 RFU/organ"
same,Km,cytochrome P450 [8],7.8 µM
same,Vmax,cytochrome P450 [8],3.0 pmol/min/mg protein
O=C(O)C1CSC(c2nc3ccc(OCc4c(F)c(F)c(F)c(F)c4F)cc3s2)=N1 (stereo not drawn) [Luciferin-PFBE],Production of luciferin (RFU/organ),cytochrome P450 [7],"229,000 RFU/organ"
"CCCCCOc1ccc(-c2cc(-c3ccc(C(=O)N[C@H]4C[C@@H](O)[C@@H](O)NC(=O)[C@@H]5[C@@H](O)[C@@H](C)CN5C(=O)[C@H]([C@H](O)CC(N)=O)NC(=O)[C@H]([C@H](O)[C@@H](O)c5ccc(O)c(OS(=O)(=O)O)c5)NC(=O)[C@@H]5C[C@@H](O)CN5C(=O)[C@H]([C@@H](C)O)NC4=O)cc3)no2)cc1 [Micafungin] (X1-[Orn(4R-OH,5R-OH)]T[Hyp][hTyr(3S-OH,4S-OH,3'-OSO3H)][Gln(3R-OH)][Pro(3S-OH,4S-Me)]; lactam 1-C)",Cltot,[9],0.07 mL/g/h
same,Vdss,[9],0.4 mL/g
same,t1/2,[9],5.0 h
same,HPLC peak area in hemolymph,[6]; [12],2078182
same,HPLC peak area in hemolymph,[6]; [13],1273864
same,HPLC peak area in hemolymph,"[6]; 20 min after injection, raw data of Fig. 1",874882
same,HPLC peak area in hemolymph,[6]; [14],1057083
same,HPLC peak area in hemolymph,[6]; [15],1430059
same,HPLC peak area in hemolymph,[6]; [16],1093500
same,HPLC peak area in hemolymph,[6]; [17],1117482
same,HPLC peak area in hemolymph,[6]; [18],1017294
same,HPLC peak area in hemolymph,[6]; [19],1043908
same,HPLC peak area in hemolymph,[6]; [20],936752
same,HPLC peak area in hemolymph,[6]; [21],1002362
same,HPLC peak area in hemolymph,[6]; [22],970304
same,Time-course of the decrease in concentration in hemolymph (in words),[6]; [23],biphasic
same,half-life,[6]; in vivo,720 min
same,Cltot (total body clearance),[6]; [24],0.03 mL/g/h
CO[C@H]1/C=C/O[C@@]2(C)Oc3c(C)c(O)c4c(O)c(c(/C=N/N5CCN(C)CC5)c(O)c4c3C2=O)NC(=O)/C(C)=C\C=C\[C@H](C)[C@H](O)[C@@H](C)[C@@H](O)[C@@H](C)[C@H](OC(C)=O)[C@@H]1C [Rifampicin],Cltot,[10],0.31 mL/g/h
same,Vdss,[10],1.3 mL/g
same,HPLC peak area in hemolymph,[6]; [12],1080705
same,HPLC peak area in hemolymph,[6]; [25],246911
same,HPLC peak area in hemolymph,[6]; [26],125859
same,HPLC peak area in hemolymph,[6]; [14],103195
same,HPLC peak area in hemolymph,[6]; [16],64446
same,HPLC peak area in hemolymph,[6]; [17],59307
same,HPLC peak area in hemolymph,[6]; [19],20209
same,HPLC peak area in hemolymph,[6]; [20],11026
same,HPLC peak area in hemolymph,[6]; [21],4977
same,HPLC peak area in hemolymph,[6]; [22],2816
same,Time-course of the decrease in concentration in hemolymph (in words),[6]; in vivo,biphasic
same,Difference in total clearance between silkworm and mammal,"[6]; silkworm (Bombyx mori), in vivo",10 fold
same,Cltot (total body clearance),[6]; [24],2.11 mL/g/h
CN[C@H](CC(C)C)C(=O)N[C@H]1C(=O)N[C@@H](CC(N)=O)C(=O)N[C@H]2C(=O)N[C@H]3C(=O)N[C@H](C(=O)N[C@H](C(=O)O)c4cc(O)cc(O)c4-c4cc3ccc4O)[C@H](O)c3ccc(c(Cl)c3)Oc3cc2cc(c3O[C@@H]2O[C@H](CO)[C@@H](O)[C@H](O)[C@H]2O[C@H]2C[C@](C)(N)[C@H](O)[C@H](C)O2)Oc2ccc(cc2Cl)[C@H]1O [Vancomycin],Cltot,[11],0.08 mL/g/h
same,Vdss,[11],0.6 mL/g
same,t1/2,[11],2.6 h
same,HPLC peak area in hemolymph,"[6]; 0 min after injection, raw data of Fig. 1",6413329
same,HPLC peak area in hemolymph,[6]; [12],7258474
same,HPLC peak area in hemolymph,[6]; [13],5965159
same,HPLC peak area in hemolymph,[6]; [25],4477743
same,HPLC peak area in hemolymph,"[6]; 15 min after injection, raw data of Fig. 1",4233708
same,HPLC peak area in hemolymph,[6]; [26],5070602
same,HPLC peak area in hemolymph,[6]; [14],4520231
same,HPLC peak area in hemolymph,[6]; [15],4399183
same,HPLC peak area in hemolymph,[6]; [17],3764336
same,HPLC peak area in hemolymph,[6]; [18],4979100
same,HPLC peak area in hemolymph,[6]; [20],4348972
same,HPLC peak area in hemolymph,[6]; [21],4148058
same,Time-course of the decrease in concentration in hemolymph (in words),[6]; [23],biphasic
same,half-life,[6]; in vivo,780 min
same,Cltot (total body clearance),[6]; [24],0.03 mL/g/h
CN/C(=N/CCSCc1nc[nH]c1C)NC#N [cimetidine],Inhibition of 7-ethoxycoumarin deethylation in the silkworm midgut (in words),cytochrome P450 [1]; midgut incubated with 7-ethoxycoumarin and cimetidine at 30 °C,inhibited this reaction in the midgut
